Where two headings read alike, the source gives them in different places.
Tests used:
HDAC2 = HDAC2 (Homo sapiens, UniProt Q92769); experiment: HDAC biochemical activity measurement (fluorescent substrate deacetylation);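 further: HDAC2 enzyme with an acetyl-lysine fluorescent substrate, then developer added, fluorescence read at excitation 360 nm and emission 460 nm, inhibition measured across several compound concentrations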; details: 37° C. 30 minutes
Description: The chemical activity of the compound is determined according to the degree of deacetylation inhibition of the HDAC enzyme. This experiment measured the degree of deacetylation related to tumor proliferation and metastasis of HDAC1, HDAC2, HDAC3, HDAC8, HDAC11 five subtypes HDAC enzymes. After the substrate containing an acetylated lysine side chain and HDAC enzyme are labeled with a fluorescent label, the fluorescent substrate is de acetyl. The fluorescent labeled substrate is cleaved by the enzyme, and the fluorescent substance is released, which generates 460 nm emission light under the excitation of 360 nm light.
HDAC substrate was diluted with reaction buffer to 200M (reaction concentration of 20M), the HDAC enzyme was diluted to the appropriate concentration, then added different concentrations of the test compounds and acted at 37° C. 30 minutes, and then added the same volume of 2-times concentration substrate developing solution (developer), incubated at room temperature for 15 minutes.

HDAC11 = molecular target: T1, HDAC11 (Homo sapiens, UniProt Q96DB2); experiment: as above;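 further: HDAC11 enzyme acting on an acetyl-lysine fluorogenic substrate, then a developer frees the fluorophore, read at excitation 360 nm and emission 460 nm, IC50 over a compound dilution series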
T1 sequence (Q96DB2 1-347): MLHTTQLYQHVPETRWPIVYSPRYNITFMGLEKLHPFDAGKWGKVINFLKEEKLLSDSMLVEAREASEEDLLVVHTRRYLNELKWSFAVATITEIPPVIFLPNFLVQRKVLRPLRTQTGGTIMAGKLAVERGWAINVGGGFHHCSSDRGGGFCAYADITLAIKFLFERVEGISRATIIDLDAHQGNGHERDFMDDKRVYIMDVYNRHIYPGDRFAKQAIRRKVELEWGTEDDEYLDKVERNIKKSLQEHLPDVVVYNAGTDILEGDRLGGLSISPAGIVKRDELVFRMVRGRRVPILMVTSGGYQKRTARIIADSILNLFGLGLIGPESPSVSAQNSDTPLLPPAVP

[1] = test system: HT1080 (human fibrosarcoma cells); experiment: MTT cancer cell growth inhibition; format: cell-based; details: MTT
Summary of the method: (§1)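 GI50 values come from MTT viability: after 72 h compound exposure (final 10^−5–10^−10 M, three wells each) of cells plated overnight at 1500/well in 10% FBS medium, MTT was given for 4 h. The DMSO-solubilised formazan was then measured at 570 nm.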

[2] = test system: HCC827 (human non-small cell lung cancer cells); experiment: MTT cancer cell growth inhibition; format: cell-based; details: MTT, 72 hours incubation, HCC827 cells, read-out: GI50 HCC827
Summary of the method: as §1

[3] = test system: SGC-7901 (human gastric cancer cells); experiment: MTT cancer cell growth inhibition; format: cell-based; details: MTT, 72 hours incubation, SGC-7901 cells, read-out: GI50 SGC-7901
Summary of the method: as §1

[4] = test system: H1975 (non-small cell lung adenocarcinoma); experiment: MTT cancer cell growth inhibition; format: cell-based; details: MTT, 72 hours incubation, H1975 cells, read-out: GI50 H1975
Summary of the method: as §1

[5] = test system: N-87 (human gastric cancer cells); experiment: MTT cancer cell growth inhibition; format: cell-based; details: MTT, 72 hours incubation, N-87 cells, read-out: GI50 N-87
Summary of the method: as §1

[6] = test system: Hela (human cervical cancer cells); experiment: MTT cancer cell growth inhibition; format: cell-based; details: MTT
Summary of the method: as §1

[7] = test system: KBM-5 (human chronic myelogenous leukemia); experiment: MTT cancer cell growth inhibition; format: cell-based; details: MTT, 72 hours incubation, KBM-5 cells, read-out: GI50 KBM-5
Summary of the method: as §1

[8] = test system: KBM5-T315I (human chronic myelogenous leukemia); experiment: MTT cancer cell growth inhibition; format: cell-based; details: MTT, 72 hours incubation, KBM5-T315I cells, read-out: GI50 KBM5-T315I
Summary of the method: as §1

[9] = test system: K562 (human leukemia cells); experiment: MTT cancer cell growth inhibition; format: cell-based; details: MTT, 72 hours incubation, K562 cells, read-out: GI50 K562
Summary of the method: as §1

[10] = test system: MDA-MB-231 (breast cancer cells); experiment: MTT cancer cell growth inhibition; format: cell-based
Summary of the method: as §1

HDAC7 = molecular target: T2, HDAC7 (Homo sapiens, UniProt Q8WUI4); experiment: HDAC biochemical activity measurement (fluorescent substrate deacetylation);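 further: fluorogenic deacetylation assay using acetyl-lysine substrate at 20 µM, enzyme and compound incubated 30 min at 37 °C, then developer added, fluorescence read at 360/460 nm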; details: HDAC7; 37° C. 30 minutes
T2 sequence (Q8WUI4 1-952): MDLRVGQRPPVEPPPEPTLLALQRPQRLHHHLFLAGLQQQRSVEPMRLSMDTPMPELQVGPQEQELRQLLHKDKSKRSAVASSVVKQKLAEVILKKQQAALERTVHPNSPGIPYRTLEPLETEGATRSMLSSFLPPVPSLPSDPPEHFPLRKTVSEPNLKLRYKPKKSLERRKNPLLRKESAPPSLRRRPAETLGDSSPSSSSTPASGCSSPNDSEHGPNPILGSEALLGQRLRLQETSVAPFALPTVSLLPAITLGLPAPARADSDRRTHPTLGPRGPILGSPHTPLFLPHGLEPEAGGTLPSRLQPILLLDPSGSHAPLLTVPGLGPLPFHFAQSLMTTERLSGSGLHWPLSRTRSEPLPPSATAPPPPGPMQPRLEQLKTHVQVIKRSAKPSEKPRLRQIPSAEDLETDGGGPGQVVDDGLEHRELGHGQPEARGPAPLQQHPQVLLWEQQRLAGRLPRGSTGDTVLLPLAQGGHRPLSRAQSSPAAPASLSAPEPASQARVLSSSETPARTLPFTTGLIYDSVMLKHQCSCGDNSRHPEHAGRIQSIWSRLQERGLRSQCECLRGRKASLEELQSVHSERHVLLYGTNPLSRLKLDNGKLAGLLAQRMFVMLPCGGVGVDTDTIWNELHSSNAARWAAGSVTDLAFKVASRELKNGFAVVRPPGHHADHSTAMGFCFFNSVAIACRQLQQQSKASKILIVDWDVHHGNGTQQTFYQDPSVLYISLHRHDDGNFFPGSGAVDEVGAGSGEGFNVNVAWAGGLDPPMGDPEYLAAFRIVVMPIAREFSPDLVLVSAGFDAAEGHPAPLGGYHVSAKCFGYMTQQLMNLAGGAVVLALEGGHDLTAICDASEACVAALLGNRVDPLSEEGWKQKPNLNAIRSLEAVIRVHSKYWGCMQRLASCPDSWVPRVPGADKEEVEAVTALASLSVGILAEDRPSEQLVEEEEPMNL

[11] = read-out: IC50 HDAC11, HDAC11, 37° C. 30 minutes
[12] = Homo sapiens, HT-1080, 72 h, HT1080 cells, 72 hours incubation, read-out: GI50 HT1
[13] = Homo sapiens, HT-1080, 72 h, 72 hours, present invention, read-out: GI50 HT1080, a
[14] = Homo sapiens, HeLa, 72 h, 72 hours, present invention, read-out: GI50 Hela, a
[15] = Homo sapiens, MDA-MB-231, 72 h, read-out: GI50 MDA-MB-231, MTT, 72 hours incubation, MDA-MB-231 cells
[16] = read-out: GI50 MDA-MB-231, MTT, 72 hours incubation, MDA-MB-231 cells
[17] = Homo sapiens, HT-1080, 72 h, 72 hours incubation, read-out: GI50 HT1
[18] = Homo sapiens, HeLa, 72 h, 72 hours incubation, read-out: GI50 Hela

HDAC2, sequence (Q92769 whole entry, species assumed): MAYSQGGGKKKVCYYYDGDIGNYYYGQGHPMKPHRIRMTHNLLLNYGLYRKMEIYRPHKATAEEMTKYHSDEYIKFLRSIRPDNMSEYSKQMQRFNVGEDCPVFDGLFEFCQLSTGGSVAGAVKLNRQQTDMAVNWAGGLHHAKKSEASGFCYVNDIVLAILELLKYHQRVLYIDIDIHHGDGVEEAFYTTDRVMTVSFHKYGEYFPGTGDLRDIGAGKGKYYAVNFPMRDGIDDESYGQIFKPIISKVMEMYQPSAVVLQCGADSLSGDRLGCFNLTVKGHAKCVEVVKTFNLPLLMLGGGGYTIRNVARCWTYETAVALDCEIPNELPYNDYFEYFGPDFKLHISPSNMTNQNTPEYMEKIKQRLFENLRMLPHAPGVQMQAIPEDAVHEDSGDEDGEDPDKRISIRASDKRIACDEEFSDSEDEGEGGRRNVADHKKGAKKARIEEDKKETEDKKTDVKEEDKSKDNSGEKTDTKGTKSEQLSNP

Structure (SMILES)	IC50 (HDAC2) [nM]	IC50 (HDAC11; [11]) [nM]	GI50 ([2]; Homo sapiens, HCC827, 72 h) [nM]	GI50 ([3]; Homo sapiens, SGC-7901, 72 h) [nM]	GI50 ([4]; Homo sapiens, NCI-H1975, 72 h) [nM]	GI50 ([5]; Homo sapiens, 72 h) [nM]	GI50 [6, 14] [nM]	GI50 ([7]; Homo sapiens, KBM5, 72 h) [nM]	GI50 ([8]; Homo sapiens, 72 h) [nM]	GI50 ([9]; Homo sapiens, K562, 72 h) [nM]	GI50 [10, 15] [nM]	IC50 HDAC7 (HDAC7)	GI50 [1, 17] [nM]	GI50 [6, 18] [nM]	further results
C/C=C1\NC(=O)c2cccc(n2)CNC(=O)C[C@@H](/C=C/CCSC(=O)CCCCCCC)OC(=O)[C@H](C(C)(C)C)NC1=O [Compound 237]	32	77	25	33	83	58	880	49	87	69	12	no activity			GI50 [1, 12]: 990 nM; GI50 [1, 13]: 990 nM; GI50 ([6]; Homo sapiens, HeLa, 72 h, Hela cells, 72 hours incubation, read-out: GI50 Hela): 880 nM
C/C=C1\NC(=O)c2nc(F)cc(n2)CNC(=O)C[C@@H](/C=C/CCSC(C)=O)OC(=O)[C@H](C(C)C)NC1=O [Compound 98]	19	89										no activity			GI50 ([1]; 72 hours incubation, read-out: GI50 HT1): 80 nM; GI50 [2]: 35 nM; GI50 [3]: 36 nM; GI50 [4]: 81 nM; GI50 [5]: 21 nM; GI50 ([6]; 72 hours incubation, read-out: GI50 Hela): 50 nM; GI50 [7]: 29 nM; GI50 [8]: 58 nM; GI50 [9]: 37 nM; GI50 [10, 16]: 37 nM
C/C=C1\NC(=O)c2cc(SC)cc(n2)CNC(=O)C[C@@H](/C=C/CCSC(C)=O)OC(=O)[C@H](C(C)C)NC1=O [Compound 224]	335	279										no activity			GI50 ([1]; HT1080 cells, 72 hours incubation, read-out: GI50 HT1): 90 nM; GI50 [2]: 52 nM; GI50 [3]: 93 nM; GI50 [4]: 96 nM; GI50 [5]: 17 nM; GI50 ([6]; Hela cells, 72 hours incubation, read-out: GI50 Hela): 60 nM; GI50 [7]: 16 nM; GI50 [8]: 63 nM; GI50 [9]: 23 nM; GI50 [10, 16]: 62 nM
C/C=C1\NC(=O)c2nc(ccc2F)CNC(=O)C[C@@H](/C=C/CCSC(=O)CCCCCCC)OC(=O)[C@H](CC)NC1=O [Example 54]	24		51	64	43	49		99	63	29	34	no activity	50	90	IC50 (HDAC11): 99 nM
C/C=C1\NC(=O)c2cccc(n2)CNC(=O)C[C@@H](/C=C/CCSC(=O)CCCCCCC)OC(=O)[C@H](C(C)C)NC1=O [Compound 1]	22	380	179	53	122	18	20	37	46	78	95	no activity	10	20	
C/C=C1\NC(=O)c2nc(ccc2F)CNC(=O)C[C@@H](/C=C/CCSC(=O)CCCCCCC)OC(=O)[C@H](C)NC1=O [Example 60]	37		57	43	42	63		74	83	27	19	no activity	50	70	IC50 (HDAC11): 88 nM
C/C=C1\NC(=O)c2cc(F)cc(n2)CNC(=O)C[C@@H](/C=C/CCSC=O)OC(=O)[C@H](C(C)C)NC1=O [Compound 52]	62	107	91	51	61	53		88	67	27	31	no activity	90	80	
C=C1NC(=O)c2cccc(n2)CNC(=O)C[C@@H](/C=C/CCSC(=O)CCCCCCC)OC(=O)[C@H](C(C)C)NC1=O [Compound 244]	53	37	28	36	73	83	8	23	12	53	35	no activity			GI50 [1, 12]: 760 nM; GI50 [1, 13]: 760 nM
C/C=C1\NC(=O)c2cccc(n2)CNC(=O)C[C@@H](/C=C/CCSC(=O)CC)OC(=O)[C@H](C(C)C)NC1=O [Compound 6]	59	135	65	51	13	28		61	41	33	84	no activity	80	60	
C=C1NC(=O)c2cccc(n2)CNC(=O)C[C@@H](/C=C/CCSC(C)=O)OC(=O)[C@H](C(C)C)NC1=O [Compound 19]	63	103	48	52	24	51		53	24	26	95	no activity	70	60	

Reference: patent US10065990B2, “Cyclic peptide compound, and preparation method, pharmaceutical composition and use thereof” (HANGZHOU GUANYU BIO-MEDICAL CO., LTD, priority 2013, dated 2018)
